From patent publication US20160243136A1, “PHARMACEUTICAL FORMULATIONS CONTAINING MITOCHONDRIALLY TARGETED ANTIOXIDANTS” (Mitotech SA, priority 2013, published 2016)

Key:
[1] = system: Human neutrophils; assay: f-MLP-stimulated neutrophil MMP-9 release by zymography; assay type: cell-based; details: 0.2 nM, 2 nM, and 200 nM; 1.5 hr pre-incubation; 1 nM f-MLP 30 min; vs vehicle control
Protocol: Human neutrophils were isolated from anticoagulated blood of healthy donors. Neutrophils were pre-incubated with 0.2 nM, 2 nM, 20 nM, 200 nM, and 500 nM SkQ1 solution in RPMI-1640 medium supplemented with 10% fetal serum for 1.5 hr at 37° C. in 5% CO2. The cells were then stimulated with 1 nM N-formyl-methionine-leucine-phenylalanine (f-MLP) for 30 min. The supernatants from the cells were used to detect MMP-9 activity by zymography analysis (MMP-9 release was used to estimate tissue damage). The data from this assay was shown as means at least for 3 separate experiments.

[2] = system: Wistar rats with experimental hepatitis; assay: D-galactosamin-induced experimental hepatitis; assay type: in vivo, rat; details: 7 d before induction, control median 2
Protocol: Experimental hepatitis was induced in 8-10 weeks old Wistar rats weighing […] by intraperitoneal injection of 500 mg/kg D-galactosamin in 0.9% NaCl. SkQ1 was administered by gavage in aqueous solution at doses of 10 nmol/kg/day, 50 nmol/kg/day, 250 nmol/kg/day, and 1250 nmol/kg/day starting 7 d before induction of hepatitis and ending at the day of induction. The animals were sacrificed 24 hrs after the induction of hepatitis. Inflammation score was estimated for each animal on a 3-point scale by blind examination of hematoxylin-eosin stained liver sections.

[3] = system: Wistar rats with acute pancreatitis; assay: Arginine-induced acute pancreatitis model; assay type: in vivo, rat; details: for MPO activity in pancreatic tissue homogenates: control 52.9, intact 6.1
Protocol: Kidney homogenates for MPO determination were centrifuged at 20000 g 15 min, the pellets were resuspended in 50 mM K-phosphate buffer containing 0.5% CTAB. Resulted samples were frozen and thawed three times and then centrifuged at 10600 g 10 min. Supernatants were analyzed for MPO activity in chromogenic reaction with o-phenylenediamine (OPD). 100 μl sample was mixed with 100 μl substrate buffer (25 mM Na-citrate, 50 mM Na-phosphate, 0.45 mg/ml OPD, 0.1% H2O2, pH 5.0) and was incubated 15 min at room temperature and then OD was detected at 492 nm.
42 Wistar rats (age: 20-25 week, weight 400 g-750 g) were distributed among 4 experiemntal groups with the same average weight. SkQ1 was administered with drinking water with an estimated dosage of 250 nmoles/kg/day or 50 nmoles/kg/day. Acute pancreatitis was induced by a single intraperitoneal (ip) injection of arginine (100 mg/100 g of animal weight; 20% arginine solution in about 2.5 ml phosphate buffer).
The experimental groups were: (1) Intact (n=10); (2) Control (n=10) treated with arginine ip injection; (3) SkQ250-SkQ1 pretreatment with 250 nmoles/kg/day dosage for 9 days; IP injection of arginine on day 9, continuation of SkQ1 treatment for 24 hr (n=10); and (4) SkQ50-SkQ1 pretreatment with 50 nmoles/kg/day dosage for 9 days. IP injection of arginine on day 9, continuation of SkQ1 treatment for 24 hr (n=10).
The activity of pancreatic myeloperoxidase (MPO) was also measured as described in Example 1 (for kidney tissue).
Samples of pancreas were fixed in 10% formalin and then prepared for eosin-hematoxylin staining of 5 μm-6 μm slices using standard techniques. Stained samples (slices) were examined under light microscopy.
The intensity of inflammation in the samples was measured by a standard ascending scale score from 0 to 3. The average score of inflammation in rats without SkQ treatment was 1.5.

CC1=C(C)C(=O)C(CCCCCCCCCC[P+](c2ccccc2)(c2ccccc2)c2ccccc2)=CC1=O [SkQ1, 10-(6-plastoquinonyl)decyl-triphenylphosphonium]
neutrophil-MMP-9 activation induced by f-MLP [1]: prevented | inflammation score (3-point scale, liver sections) ([2]; 50 nmol/kg/day by gavage, p<0.01): 1.5 | inflammation score (median, 3-point scale, liver sections) ([2]; 1250 nmol/kg/day by gavage, p<0.001): 1 | MPO activity in pancreatic tissue homogenates ([3]; SkQ50: 50 nmoles/kg/day for 9 days + 24 hr): 50.0 | Average inflammation score (pancreas histology, scale 0 to 3) ([3]; SkQ50: 50 nmoles/kg/day, untreated pancreatitis 1.5): 1.5 | MPO activity in pancreatic tissue homogenates ([3]; SkQ250: 250 nmoles/kg/day for 9 days + 24 hr): 15.8 | weight of the pancreas (edema) ([3]; both dosages (250 and 50 nmoles/kg/day in drinking water)): prevented an increase
